# In patent US9969742B2, “Imidazotriazinone compounds” (Ironwood Pharmaceuticals, Inc., priority 2012, dated 2018):
# Like-named read-outs stand apart in the source and are kept apart here.
# Assays:
# Format in all cases: biochemical
# PDE1B = target: T1, PDE1B (Homo sapiens, UniProt Q01064); assay: Phosphodiesterase enzyme screening assay, PDE1B; conditions: Table 1; ratio of IC50 values; value greater than 1 indicates greater selectivity for PDE9A2
# T1 construct: purchased Reaction Biology Corporation, Malvern, Pa
# T1 sequence (Q01064 whole entry): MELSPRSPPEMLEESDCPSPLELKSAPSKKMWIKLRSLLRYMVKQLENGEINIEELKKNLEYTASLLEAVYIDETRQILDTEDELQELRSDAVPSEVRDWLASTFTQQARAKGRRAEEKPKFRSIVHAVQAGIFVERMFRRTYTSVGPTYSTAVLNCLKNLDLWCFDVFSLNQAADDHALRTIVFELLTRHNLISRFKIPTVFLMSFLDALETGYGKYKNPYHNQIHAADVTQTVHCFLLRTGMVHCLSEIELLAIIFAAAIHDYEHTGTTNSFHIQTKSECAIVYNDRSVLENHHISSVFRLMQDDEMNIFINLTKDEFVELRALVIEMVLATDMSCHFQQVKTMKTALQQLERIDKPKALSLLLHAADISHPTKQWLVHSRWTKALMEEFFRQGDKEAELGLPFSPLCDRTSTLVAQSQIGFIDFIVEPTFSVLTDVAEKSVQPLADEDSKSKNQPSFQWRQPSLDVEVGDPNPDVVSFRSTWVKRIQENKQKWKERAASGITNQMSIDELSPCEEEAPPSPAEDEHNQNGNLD
# Text: (§1) Compounds of the invention were screened against PDE1A, PDE1B, PDE2A, PDE3A, PDE3B, PDE4A1A, PDE4B1, PDE4D3, PDE5A1, PDE6C, PDE7A, PDE8A1, PDE9A2, PDE10A2 AND PDE11A isoforms of the phosphodiesterase enzyme to determine activity and overall selectivity through comparative analysis. […] Where 8-methoxy-IBMX and Zaprinast were used as reference inhibitors.
# (§2) The phosphodiesterase enzyme isoforms were obtained from a commercial retailer (Reaction Biology Corporation, Malvern, Pa.) for use in the instant screening assay.
# (§3) The analysis was completed using the Caliper LabChip 3000 and a 12-sipper LabChip. LabChip assays are separations-based, meaning that the product and substrate are electrophoretically separated, thereby minimizing interferences and yielding the highest data quality available on any screening platform. […] High Z′ values, few false positives, few false negatives and analytical quality reproducibility are the reasons cited for the increasing reliance on the LabChip assays.
# (§4) The off-chip incubation mobility-shift phosphodiesterase assay uses a microfluidic chip to measure the conversion of a fluorescent cyclic AMP substrate to a 5′-AMP product, or a cyclic GMP substrate to a 5′-GMP product. The reaction mixture, from a microtiter plate well, is introduced through a capillary sipper onto the chip, where the fluorescent substrate and product are separated by electrophoresis and detected via laser-induced fluorescence. […] The precision of microfluidics allows researchers to detect subtle interactions between drug candidates and therapeutic targets.
# (§5) Reactions were carried out in 100 mM HEPES (pH 7.5), 5 mM MgCl2, 1 mM DTT, 0.003% Brij, 4.0 μM cGMP substrate. The reaction was started by addition of cGMP or cAMP and incubated for 1 hour at R.T. The reaction was terminated by the addition of stop buffer containing 100 mM HEPES (pH 7.5), 15 mM EDTA, 0.015% Brij-35, 5% DMSO. Cyclic AMP/GMP substrate and 5′-AMP/5′-GMP product were separated by charge using electrophoretic mobility shift. Product formed was compared to control wells to determine inhibition or enhancement of enzyme activity.
# (§6) Data points were averages of quadruplicate wells and error bars represented the SEM for each point.
# PDE1A = target: T2, PDE1A (Homo sapiens, UniProt P54750); assay: Phosphodiesterase enzyme screening assay, PDE1A; conditions: Table 1; ratio of IC50 values; value greater than 1 indicates greater selectivity for PDE9A2
# T2 construct: purchased Reaction Biology Corporation, Malvern, Pa
# T2 sequence (P54750 whole entry): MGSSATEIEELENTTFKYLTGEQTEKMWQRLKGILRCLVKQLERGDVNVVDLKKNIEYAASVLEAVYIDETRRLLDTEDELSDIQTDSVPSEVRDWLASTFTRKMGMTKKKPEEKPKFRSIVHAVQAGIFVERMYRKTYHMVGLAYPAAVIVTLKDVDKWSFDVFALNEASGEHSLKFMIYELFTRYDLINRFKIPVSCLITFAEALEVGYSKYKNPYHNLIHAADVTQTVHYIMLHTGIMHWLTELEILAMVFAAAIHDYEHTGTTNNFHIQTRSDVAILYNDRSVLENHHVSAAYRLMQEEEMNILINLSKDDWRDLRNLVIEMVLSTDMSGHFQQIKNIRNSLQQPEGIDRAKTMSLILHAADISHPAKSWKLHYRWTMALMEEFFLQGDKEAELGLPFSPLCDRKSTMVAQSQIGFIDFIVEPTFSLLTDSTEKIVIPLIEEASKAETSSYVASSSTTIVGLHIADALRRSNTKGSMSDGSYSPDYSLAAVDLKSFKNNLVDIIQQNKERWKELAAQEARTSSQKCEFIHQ
# Text: as §1, §2, §3, §4, §5, §6
# PDE9A2 = target: T3, PDE9A2 (Homo sapiens, UniProt O76083); assay: Phosphodiesterase enzyme screening assay, PDE9A2; conditions: read-out: Band (PDE9A2 IC50)
# T3 construct: purchased Reaction Biology Corporation, Malvern, Pa
# T3 sequence (O76083 1-533 isoform O76083-2): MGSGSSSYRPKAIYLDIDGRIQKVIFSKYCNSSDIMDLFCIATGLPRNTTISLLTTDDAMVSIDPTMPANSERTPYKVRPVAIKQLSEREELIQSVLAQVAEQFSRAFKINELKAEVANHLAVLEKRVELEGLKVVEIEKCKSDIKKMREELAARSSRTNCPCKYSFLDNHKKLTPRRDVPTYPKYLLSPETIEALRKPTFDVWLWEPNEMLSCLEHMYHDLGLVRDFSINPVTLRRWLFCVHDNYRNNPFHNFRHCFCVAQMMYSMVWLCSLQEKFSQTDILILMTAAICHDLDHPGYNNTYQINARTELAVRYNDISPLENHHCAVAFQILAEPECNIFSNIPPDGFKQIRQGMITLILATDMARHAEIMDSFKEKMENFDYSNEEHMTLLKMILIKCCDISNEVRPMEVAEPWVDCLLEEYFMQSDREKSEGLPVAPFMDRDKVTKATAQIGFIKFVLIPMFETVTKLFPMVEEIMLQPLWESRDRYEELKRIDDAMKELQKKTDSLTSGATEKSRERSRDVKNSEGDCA
# Outline: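 Enzyme activity is measured as conversion of fluorescent cGMP (4.0 μM) to 5′-GMP after 1 h at R.T. in pH 7.5 HEPES/MgCl2/DTT buffer. Product is separated from substrate by microfluidic mobility shift, and inhibition is derived by comparison with control wells.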
# [1] = Table 1, 10 concentrations, 4.0 μM cGMP substrate, 1 hour at R.T.
# [2] = 4.0 μM cGMP substrate, 1 hour at R.T.
Molecule,PDE1B selectivity (versus PDE9A2) (PDE1B),PDE1A selectivity (versus PDE9A2) (PDE1A),IC50 (PDE9A2; [1]) [nM],other results
"Cc1ccc(Cl)cc1-c1ncc2c(=O)[nH]c(C3CN(Cc4ccccc4)CC3C)nn12 (single isomer, unassigned; (+)) [(+)-2-((3,4-trans)-1-benzyl-4-methylpyrrolidin-3-yl)-7-(5-chloro-2-methylphenyl)imidazo[5,1-f][1,2,4]triazin-4(3H)-one]",142,276,,
"CC1CN(Cc2ccccc2)CC1c1nn2c(C3CCCOC3)ncc2c(=O)[nH]1 (single isomer, unassigned) [2-((3,4-trans)-1-benzyl-4-methylpyrrolidin-3-yl)-7-(tetrahydro-2H-pyran-3-yl)imidazo[5,1-f][1,2,4]triazin-4(3H)-one]",38,28,,
"CC1CN(Cc2ncccn2)CC1c1nn2c(C3CCOC3)ncc2c(=O)[nH]1 (single isomer, unassigned; (+)) [(+)-2-((3,4-trans)-4-methyl-1-(pyrimidin-2-ylmethyl)pyrrolid] [(+)-2-((3,4-trans)-4-methyl-1-(pyrimidin-2-ylmethyl)pyrrolidin-3-yl)-7-(tetrahydrofuran-3-yl)imidazo[5,1-f][1,2,4]triazin-4(3H)-one]",58,28,,
"Cc1ccc(F)cc1-c1ncc2c(=O)[nH]c(C3CN(Cc4ncccn4)CC3C)nn12 (single isomer, unassigned; (+)) [(+)-7-(5-fluoro-2-methylphenyl)-2-((3,4-trans)-4-methyl-1-(p] [(+)-7-(5-fluoro-2-methylphenyl)-2-((3,4-trans)-4-methyl-1-(pyrimidin-2-ylmethyl)pyrrolidin-3-yl)imidazo[1,5-f][1,2,4]triazin-4(3H)-one]",102,158,,
"CC1CN(C(=O)c2ccccc2)CC1c1nn2c(C3CCOCC3)ncc2c(=O)[nH]1 (single isomer, unassigned; (-)) [(−)-2-((3,4-trans)-1-benzoyl-4-methylpyrrolidin-3-yl)-7-(tet] [(−)-2-((3,4-trans)-1-benzoyl-4-methylpyrrolidin-3-yl)-7-(tetrahydro-2H-pyran-4-yl)imidazo[5,1-f][1,2,4]triazin-4(3H)-one]",32,26,,
"Cc1ccc(F)cc1-c1ncc2c(=O)[nH]c(C3CN(Cc4ccccc4)CC3C)nn12 (single isomer, unassigned; (+)) [(+)-2-((3,4-trans)-1-benzyl-4-methylpyrrolidin-3-yl)-7-(5-fl] [(+)-2-((3,4-trans)-1-benzyl-4-methylpyrrolidin-3-yl)-7-(5-fluoro-2-methylphenyl)imidazo[1,5-f][1,2,4]triazin-4(3H)-one]",109,247,,
"CC1CN(C(=O)c2ccc(F)cc2)CC1c1nn2c(C3CCOCC3)ncc2c(=O)[nH]1 (single isomer, unassigned; (-)) [(−)-2-((3,4-trans)-1-(4-fluorobenzoyl)-4-methylpyrrolidin-3-] [(−)-2-((3,4-trans)-1-(4-fluorobenzoyl)-4-methylpyrrolidin-3-yl)-7-(tetrahydro-2H-pyran-4-yl)imidazo[5,1-f][1,2,4]triazin-4(3H)-one]",23,12,,
"CC1CN(C(=O)c2ccccc2)CC1c1nn2c(C3CCOCC3)ncc2c(=O)[nH]1 (single isomer, unassigned; (-)) [(−)-2-((3,4-trans)-1-benzoyl-4-methylpyrrolidin-3-yl)-7-(tetrahydro-2H-pyran-4-yl)imidazo[5,1-f][1,2,4]triazin-4(3H)-one]",,,< 1000,
"CC1CN(Cc2ncccn2)CC1c1nn2c(-c3ccccc3C(F)(F)F)ncc2c(=O)[nH]1 (single isomer, unassigned; (+))",,,,IC50 (PDE9A2; [2]): < 1000 nM
"CC1CN(Cc2ccccc2)CC1c1nn2c(CC(F)(F)F)ncc2c(=O)[nH]1 (single isomer, unassigned; (+)) [(+)-2-((3,4-trans)-1-benzyl-4-methylpyrrolidin-3-yl)-7-(2,2,2-trifluoroethyl) imidazo [5,1-f] [1,2,4] triazin-4 (3H)-one]",,,,IC50 (PDE9A2; [2]): < 1000 nM
"CC1CN(Cc2ccccc2C#N)CC1c1nn2c(C3CCOCC3)ncc2c(=O)[nH]1 (single isomer, unassigned; (-)) [(−)-2-(((3,4-trans)-3-methyl-4-(4-oxo-7-(tetrahydro-2H-pyran-4-yl)-3,4-dihydroimidazo[5,1-f][1,2,4]triazin-2-yl)pyrrolidin-1-yl)methyl)benzonitrile]",,,< 1000,
"CC1CN(Cc2ccccc2)CC1c1nn2c(C3CCN(C(=O)OC(C)(C)C)CC3)ncc2c(=O)[nH]1 (single isomer, unassigned; (+)) [(+)-tert-butyl 4-(2-((3,4-trans)-1-benzyl-4-methylpyrrolidin-3-yl)-4-oxo-3,4-dihydroimidazo[1,5-f][1,2,4]triazin-7-yl)piperidine-1-carboxylate]",,,1000 to 10000,
"CC1CN(Cc2ccc(F)cc2)CC1c1nn2c(-c3ccccc3C(F)(F)F)ncc2c(=O)[nH]1 (single isomer, unassigned; (+))",,,,IC50 (PDE9A2; [2]): < 1000 nM
"CC1CN(Cc2ccc3nccn3n2)CC1c1nn2c(C3CCOCC3)ncc2c(=O)[nH]1 (single isomer, unassigned; (-)) [(−)-2-((3,4-trans)-1-(imidazo[1,2-b]pyridazin-6-ylmethyl)-4-methylpyrrolidin-3-yl)-7-(tetrahydro-2H-pyran-4-yl)imidazo[5,1-f][1,2,4]triazin-4(3H)-one]",,,< 1000,
"COc1cccc(CN2CC(C)C(c3nn4c(C5CCOCC5)ncc4c(=O)[nH]3)C2)n1 (single isomer, unassigned; (-)) [(−)-2-((3,4-trans)-1-((6-methoxypyridin-2-yl)methyl)-4-methylpyrrolidin-3-yl)-7-(tetrahydro-2H-pyran-4-yl)imidazo[5,1-f][1,2,4]triazin-4(3H)-one]",,,< 1000,
"(+)-2-((3,4-trans)-1-benzyl-4-methylpyrrolidin-3-yl)-7-(piperidin-4-yl)imidazo[1,5-f][1,2,4]triazin-4(3H)-one",,,1000 to 10000,
"(−)-2-((3,4-trans)-1-benzyl-4-methylpyrrolidin-3-yl)-7-(piperidin-4-yl)imidazo[1,5-f][1,2,4]triazin-4(3H)-one",,,> 10000,
"CC1CN(Cc2ccccc2)CC1c1nn2c(C3CCN(C(=O)OC(C)(C)C)CC3)ncc2c(=O)[nH]1 (single isomer, unassigned; (-)) [(−)-tert-butyl 4-(2-((3,4-trans)-1-benzyl-4-methylpyrrolidin-3-yl)-4-oxo-3,4-dihydroimidazo[1,5-f][1,2,4]triazin-7-yl)piperidine-1-carboxylate]",,,> 10000,
"CC1CN(Cc2ccccc2F)CC1c1nn2c(C3CCOCC3)ncc2c(=O)[nH]1 (single isomer, unassigned; (-)) [(−)-2-((3,4-trans)-1-(2-fluorobenzyl)-4-methylpyrrolidin-3-yl)-7-(tetrahydro-2H-pyran-4-yl)imidazo[5,1-f][1,2,4]triazin-4(3H)-one]",,,< 1000,
"CC1CN(C(=O)c2ncccn2)CC1c1nn2c(C3CCOCC3)ncc2c(=O)[nH]1 (single isomer, unassigned; (-)) [(−)-2-((3,4-trans)-4-methyl-1-(pyrimidine-2-carbonyl)pyrrolidin-3-yl)-7-(tetrahydro-2H-pyran-4-yl)imidazo[5,1-f][1,2,4]triazin-4(3H)-one]",,,< 1000,
"CC1CN(Cc2cccnc2)CC1c1nn2c(-c3ccc(F)cc3)ncc2c(=O)[nH]1 (single isomer, unassigned; (+)) [(+)-7-(4-fluorophenyl)-2-((3,4-trans)-4-methyl-1-(pyridin-3-ylmethyl)pyrrolidin-3-yl)imidazo[5,1-f][1,2,4]triazin-4(3H)-one]",,,,IC50 (PDE9A2): < 1000 nM
"Cc1ccc(Cl)cc1-c1ncc2c(=O)[nH]c([C@@H]3CNC[C@H]3C)nn12 (relative stereo) [(−)-7-(5-chloro-2-methylphenyl)-2-((3,4-trans)-4-methylpyrrolidin-3-yl)imidazo[5,1-f][1,2,4]triazin-4(3H)-one]",,,1000 to 10000,
